Where two headings read alike, the source gives them in different places.
What was measured:
U87MG_IDH1R132H = assay: Cellular 2-HG production assay, U87-MG-IDH1 R132H; type: cell-based; conditions: inhibition of 2HG production, 72 hr incubation, LC-MS/MS
Experimental: (§1) Cell lines HT-1080 (commercially available) and U87-MG-IDH1^R132H (obtained in analoy to the procedure reported in J. Mol. Neurosci 2013, 50, 165-71) are maintained in E-MEM 10% FCS and incubated at 37° C. in a humidified 5% CO2 atmosphere. Stably transfected U87-MG cell lines are also supplemented with 500 μg/mL G418.
(§2) Cells are seeded into 96 well black flat bottom plates at a density of 500 cells/well in 100 μL complete medium. After 24 hr the medium is replaced with 200 uL of fresh medium and compounds (dissolved into DMSO) are administrated to the cells using D300E Digital Dispenser (Tecan).
(§3) After 72 hr of incubation 100 uL from each well are collected and used for 2HG (R(−)-2-hydroxyglutarate) quantification.
(§4) Levels of 2-HG in cell culture media are determined by LC-MS/MS. Cell supernatants (100 μL/well) are treated with 1 M aqueous trichloroacetic acid containing 130 μM of the internal standard 2-HG-d3 (20 μL/well) in a 96-well plate.
(§5) The plates are sealed, mildly vortexed for 60 minutes, centrifuged at 4,000 RPM for 15 minutes, placed in a refrigerated autosampler taking care not to shake them, and aliquots of the upper part of the samples are directly injected in the chromatographic system. Calibration standards are obtained by ten fold dilution of aqueous 2-HG stock solutions with blank cell culture medium and denatured exactly in the same way as described above for samples. Samples and standards are assayed for 2-HG by reversed phase chromatography on a C18 column eluted with aqueous 0.15% formic acid and briefly washed with 90% methanol at the end of the run. 2-HG is determined by negative ion electrospray ionization with the internal standard method on a triple quadrupole mass spectrometer monitoring the MRM transitions 147>129 (2-HG) and 150>132 (2-HG-d3). 2-HG inhibition was calculated by comparing treated versus control data using Assay Explore (Symyx) software, with IC50 determined using a sigmoidal fitting algorithm.

IDH1^R132C = molecular target: T1, IDH1^R132C (Homo sapiens, UniProt O75874, R132C); assay: NADPH depletion assay, IDH1 R132C; type: biochemical
T1 construct: purchased not specified
Outline: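 IDH1 R132C (2 nM) preincubated 15 min at RT with compound in Tris-HCl pH 7.6/MgCl2 buffer, then 60 min RT with NADPH and 0.14 mM alpha-ketoglutarate. Remaining NADPH read by diaphorase/resazurin fluorescence (Ex544/Em590).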

[1] = molecular target: T2, IDH1^R132H homodimer enzyme (Homo sapiens, UniProt O75874, R132H); assay: NADPH depletion assay, IDH1 R132H; type: biochemical
T2 construct: purchased not specified
Outline: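 IDH1 R132H enzyme (8 nM as diluted) in Tris-HCl pH 7.6 with 10 mM MgCl2, 0.001% Triton X-100 and 4 mM β-mercaptoethanol is preincubated 15 min at RT with compound. Substrate mix (12 uM NADPH, 3.4 mM α-ketoglutarate) is added for 60 min; remaining NAD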

HT-1080 (IDH1^R132C) = assay: Cellular 2-HG production assay, HT-1080; type: cell-based; conditions: read-out: HT1080 2-HG IC50
Experimental: as §1, §2, §3, §4, §5

IDH2^R172K = molecular target: T3, IDH2^R172K (Homo sapiens, UniProt P48735, R172K); assay: NADPH depletion assay, IDH2 R172K; type: biochemical
T3 construct: purchased not specified
T3 sequence (P48735 40-452 R172K): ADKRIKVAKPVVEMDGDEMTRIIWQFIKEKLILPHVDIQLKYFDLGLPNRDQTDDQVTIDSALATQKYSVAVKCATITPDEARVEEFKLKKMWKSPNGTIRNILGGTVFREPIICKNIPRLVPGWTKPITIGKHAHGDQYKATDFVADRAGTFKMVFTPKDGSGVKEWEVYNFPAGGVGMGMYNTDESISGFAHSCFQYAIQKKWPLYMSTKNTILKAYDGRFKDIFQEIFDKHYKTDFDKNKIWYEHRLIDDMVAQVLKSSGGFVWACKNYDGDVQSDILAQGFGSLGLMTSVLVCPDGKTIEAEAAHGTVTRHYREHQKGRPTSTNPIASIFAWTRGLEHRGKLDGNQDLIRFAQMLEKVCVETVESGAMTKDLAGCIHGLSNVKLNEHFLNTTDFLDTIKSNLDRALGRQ
Outline: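 IDH2 R172K (16 nM) was preincubated 15 min at RT with compound (1:3 series from 1 mM in DMSO) in Tris pH 7.6/NaCl/MgCl2/Triton/β-mercaptoethanol. The reaction ran 60 min at RT with 0.55 mM alpha-ketoglutarate and NADPH (12 μM in the substrate mix). Remaining NADPH was read with diaphorase/resazurin fluorescence at Ex544/Em590.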

[2] = Homo sapiens, HT-1080, 72 h, inhibition of 2HG production, 72 hr incubation, LC-MS/MS

T2 sequence (O75874 whole entry R132H): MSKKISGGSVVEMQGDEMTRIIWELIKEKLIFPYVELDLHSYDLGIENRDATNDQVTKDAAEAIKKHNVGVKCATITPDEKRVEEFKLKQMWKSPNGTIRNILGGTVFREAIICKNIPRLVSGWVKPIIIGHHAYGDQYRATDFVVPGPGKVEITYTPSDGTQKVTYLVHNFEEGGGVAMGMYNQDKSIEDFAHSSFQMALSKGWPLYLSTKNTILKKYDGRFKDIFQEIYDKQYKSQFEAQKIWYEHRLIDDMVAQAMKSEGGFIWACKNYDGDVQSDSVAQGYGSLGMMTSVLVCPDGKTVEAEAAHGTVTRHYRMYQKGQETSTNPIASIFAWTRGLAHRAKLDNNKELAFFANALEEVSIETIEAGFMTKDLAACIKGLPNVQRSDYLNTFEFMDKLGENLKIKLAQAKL
T1 sequence (O75874 whole entry R132C): as the sequence (O75874 whole entry R132H) above, with H132C counted along it

Row | Compound | IC50 (U87MG_IDH1R132H) [nM] | IC50 (IDH1^R132C) [nM] | IC50 [1] [nM] | IC50 (HT-1080 (IDH1^R132C); [2]) [nM] | IC50 (IDH2^R172K) [nM] | IC50 (HT-1080 (IDH1^R132C); Homo sapiens, HT-1080, 72 h) [nM] | IC50 (HT-1080 (IDH1^R132C); inhibition of 2HG production, 72 hr incubation, LC-MS/MS) [nM]
1 | Cc1ccccc1Cn1c(=O)ccc2cnc(N[C@@H](C)c3ccc(CN4CCC(F)(F)CC4)cc3)nc21 [cpd 112, 2-{[(1S)-1-{4-[(4,4-difluoropiperidin-1-yl)methyl]phenyl}ethyl]amino}-8-(2-methylbenzyl)pyrido[2,3-d]pyrimidin-7(8H)-one] | 1610 | 178 | 190 |  |  |  | 
2 | C=CC(=O)N1CCN([C@@H](CC)c2ccc([C@H](C)Nc3cc4c(ccc(=O)n4CC)cn3)cc2)CC1 |  | 4 | 4 | 0.9 | 25 |  | 
3 | C[C@H](Nc1ncc2ccc(=O)n([C@@H](C)C(C)(C)C)c2n1)c1ccc(CN2CCCC(F)(F)C2)cc1 [cpd 69, 2-{[(1S)-1-{4-[(3,3-difluoropiperidin-1-yl)methyl]phenyl}ethyl]amino}-8-[(2S)-3,3-dimethylbutan-2-yl]pyrido [2,3-d]pyrimidin-7(8H)-one] | 78 | 22 | 36 |  |  |  | 
4 | C[C@@H]1CN(Cc2ccc([C@H](C)Nc3ncc4ccc(=O)n(CC(C)(C)C)c4n3)c(F)c2)C[C@H](C)O1 [cpd 151, 2-{[(1S)-1-(4-{[(2R,6S)-2,6-dimethylmorpholin-4-yl]methyl}-2-fluorophenyl)ethyl]amino}-8-(2,2-dimethylpropyl)pyrido[2,3-d]pyrimidin-7(8H)-one] | 321 | 20 | 95 |  |  |  | 
5 | CC(Nc1ncc2ccc(=O)n(CC(C)(C)C)c2n1)c1ccc(C(=O)NC2CCC(F)(F)CC2)c(Cl)c1 (stereo not drawn) [cpd 82, 2-chloro-N-(4,4-difluorocyclohexyl)-4-(1-{[8-(2,2-dimethylpropyl)-7-oxo-pyrido[2,3-d]pyrimidin-2-yl]amino}ethyl) benzamide] | 1320 | 134 | 146 |  |  |  | 
6 | C[C@H](Nc1ncc2ccc(=O)n(Cc3c(F)cccc3F)c2n1)c1ccc(C(=O)N2CCC(F)(F)CC2)cc1 [cpd 77, 8-(2,6-difluorobenzyl)-2-{[(1S)-1-{4-[(4,4-difluoropiperidin-1-yl)carbonyl]phenyl}ethyl]amino} pyrido[2,3-d]pyrimidin-7(8H)-one] | 3030 | 209 | 207 |  |  |  | 
7 | C=CC(=O)N1CCN(Cc2ccc([C@H](C)Nc3ncc4ccc(=O)n(CC)c4n3)cc2)[C@H](C(C)C)C1 [cpd 209, 2-{[(1S)-1-(4-{[(2R)-4-acryloyl-2-(propan-2-yl)piperazin-1-yl]methyl}phenyl)ethyl]amino}-8-ethylpyrido[2,3-d]pyrimidin-7(8H)-one] |  | 46 |  | 30.2 |  |  | 
8 | CC[C@H](c1ccc([C@H](C)Nc2ncc3ccc(=O)n(C(C)C)c3n2)cc1)N1CCN(C(=O)CCO)CC1 [cpd 243] |  | 20 |  | 38 |  |  | 
9 | C=CC(=O)N1CCN(C(CC)c2ccc([C@H](C)Nc3ncc4ccc(=O)n(C5CC5)c4n3)cc2)CC1 (stereo partly drawn) [cpd 218, 2-{[(1S)-1-{4-[1-(4-acryloylpiperazin-1-yl)propyl]phenyl}ethyl]amino}-8-cyclopropylpyrido[2,3-d]pyrimidin-7(8H)-one] |  | 13 |  | 2.1 |  |  | 
10 | CC(C)n1c(=O)ccc2cnc(N[C@@H](C)c3ccc([C@H](CC4CC4)N4CCN(C(=O)CCCl)CC4)cc3)nc21 [cpd 242, 2-{[(1S)-1-(4-{(1S)-1-[4-(3-chloropropanoyl)piperazin-1-yl]-2-cyclopropylethyl}phenyl)ethyl]amino}-8-(propan-2-yl)pyrido[2,3-d]pyrimidin-7(8H)-one] |  | 10 |  | 4.5 |  |  | 
11 | C=CC(=O)N1CCN(C(CC)c2ccc([C@H](C)Nc3ncc4ccc(=O)n(Cc5c(F)cccc5F)c4n3)cc2)CC1 (stereo partly drawn) [cpd 216, 2-{[(1S)-1-{4-[1-(4-acryloylpiperazin-1-yl)propyl]phenyl}ethyl]amino}-8-(2,6-difluorobenzyl)pyrido[2,3-d]pyrimidin-7(8H)-one] |  | 1 |  | 1.1 |  |  | 
12 | C=CC(=O)N1CCN(C(=O)c2ccc([C@H](C)Nc3ncc4ccc(=O)n(CC(C)(C)C)c4n3)cc2F)CC1 [cpd 142, 2-{[(1S)-1-{4-[(4-acryloylpiperazin-1-yl)carbonyl]-3-fluorophenyl}ethyl]amino}-8-(2,2-dimethylpropyl)pyrido [2,3-d]pyrimidin-7(8H)-one] |  | 214 | 176 |  | 552 | 75 | 
13 | C=CC(=O)N1CCN(C(CC)c2ccc([C@H](C)Nc3ncc4ccc(=O)n(C)c4n3)cc2)CC1 (stereo partly drawn) [cpd 215, 2-{[(1S)-1-{4-[1-(4-acryloylpiperazin-1-yl)propyl]phenyl}ethyl]amino}-8-methylpyrido[2,3-d]pyrimidin-7(8H)-one] |  | 4 |  | 2.3 |  |  | 
14 | C=CC(=O)N1CC[C@H](Oc2ccc([C@H](C)Nc3ncc4ccc(=O)n(CC)c4n3)cc2)C1 [cpd 224] |  | 1700 |  | 1070 |  |  | 
15 | C=CC(=O)N1CCN([C@@H](CC)c2ccc([C@H](C)Nc3cc4c(ccc(=O)n4C(C)C)cn3)cc2)CC1 [cpd 239, 7-{[(1S)-1-{4-[(1S)-1-(4-acryloylpiperazin-1-yl)propyl]phenyl}ethyl]amino}-1-(propan-2-yl)-1,6-naphthyridin-2(1H)-one] |  | 2 | 2 | 0.9 | 20 |  | 
16 | C[C@H](Nc1ncc2ccc(=O)n(Cc3c(F)cccc3F)c2n1)c1ccc(C(=O)NC2CCC(F)(F)CC2)cc1 [cpd 75, 4-[(1S)-1-{[8-(2,6-difluorobenzyl)-7-oxo-pyrido[2,3-d]pyrimidin-2-yl]amino}ethyl]-N-(4,4-difluorocyclohexyl)benzamide] | 1190 | 431 | 407 |  |  |  | 
17 | C=CC(=O)N1CCN([C@@H](CC2CC2)c2ccc([C@H](C)Nc3cc4c(ccc(=O)n4C(C)C)cn3)cc2)CC1 [cpd 251, 7-{[(1S)-1-{4-[(1S)-1-(4-acryloylpiperazin-1-yl)-2-cyclopropylethyl]phenyl}ethyl]amino}-1-(propan-2-yl)-1,6-naphthyridin-2(1H)-one] |  | 2 |  | 2.3 |  |  | 
18 | C[C@H](Nc1ncc2ccc(=O)n(CC(C)(C)CO)c2n1)c1ccc(-c2ccsc2)cc1 [cpd 136, 8-(3-hydroxy-2,2-dimethylpropyl)-2-({(1S)-1-[4-(thiophen-3-yl)phenyl]ethyl}amino)pyrido[2,3-d]pyrimidin-7 (8H)-one] | 2910 | 54 | 122 |  |  |  | 
19 | C=CC(=O)N1CCN(Cc2ccc([C@H](C)Nc3ncc4ccc(=O)n(CC)c4n3)cc2)C(C(C)C)C1 (stereo in doubt) [cpd 212, 2-{[(1S)-1-(4-{[(2S)-4-acryloyl-2-(propan-2-yl)piperazin-1-yl]methyl}phenyl)ethyl]amino}-8-ethylpyrido[2,3-d]pyrimidin-7(8H)-one] |  | 61 |  |  |  |  | 53.1
20 | C/C=C/C(=O)N1CCN(Cc2ccc([C@H](C)Nc3ncc4ccc(=O)n(CC(C)(C)C)c4n3)cc2)CC1 [cpd 143, 2-({(1S)-1-[4-({4-[(2E)-but-2-enoyl]piperazin-1-yl}methyl)phenyl]ethyl}amino)-8-(2,2-dimethylpropyl) pyrido [2,3-d]pyrimidin-7(8H)-one] |  | 66 | 236 | 517 |  |  | 

Source: patent publication US12018023B2 (NERVIANO MEDICAL SCIENCES S.R.L., priority 2018, dated 2024)
